Data on 22 compounds can be found in patent US10758534B2 (Vertex Pharmaceuticals Incorporated, priority 2014, dated 2020).

Each structure is given as a SMILES string. Where two headings read alike, the source gives them in different places.

In the assay the target is T1, F508del (Homo sapiens, UniProt P13569, DEL508-508).
T1 construct: expressed in transfected cells
Description: Protocol 2: FRET membrane potential optical assay (VIPR), identification of correction compounds. The class given is cell-based. In short, it runs like this:
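Correction of the F508del trafficking defect is scored as forskolin (10 μM)/genistein (20 μM)-stimulated Cl^− efflux in NIH3T3 mouse fibroblasts after a 16 hr, 37° C. compound exposure. Depolarization was followed optically using voltage-sensing FRET dyes.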

The mark [1] stands for this setting: F508del CFTR modulator activity, compounds of Table 1, read-out: EC30.
[2] abbreviates: Table 3, compounds of Table 1 as modulators of CFTR activity, protocol not stated.

T1 sequence (P13569 with tags, fused parts or gaps DEL508-508): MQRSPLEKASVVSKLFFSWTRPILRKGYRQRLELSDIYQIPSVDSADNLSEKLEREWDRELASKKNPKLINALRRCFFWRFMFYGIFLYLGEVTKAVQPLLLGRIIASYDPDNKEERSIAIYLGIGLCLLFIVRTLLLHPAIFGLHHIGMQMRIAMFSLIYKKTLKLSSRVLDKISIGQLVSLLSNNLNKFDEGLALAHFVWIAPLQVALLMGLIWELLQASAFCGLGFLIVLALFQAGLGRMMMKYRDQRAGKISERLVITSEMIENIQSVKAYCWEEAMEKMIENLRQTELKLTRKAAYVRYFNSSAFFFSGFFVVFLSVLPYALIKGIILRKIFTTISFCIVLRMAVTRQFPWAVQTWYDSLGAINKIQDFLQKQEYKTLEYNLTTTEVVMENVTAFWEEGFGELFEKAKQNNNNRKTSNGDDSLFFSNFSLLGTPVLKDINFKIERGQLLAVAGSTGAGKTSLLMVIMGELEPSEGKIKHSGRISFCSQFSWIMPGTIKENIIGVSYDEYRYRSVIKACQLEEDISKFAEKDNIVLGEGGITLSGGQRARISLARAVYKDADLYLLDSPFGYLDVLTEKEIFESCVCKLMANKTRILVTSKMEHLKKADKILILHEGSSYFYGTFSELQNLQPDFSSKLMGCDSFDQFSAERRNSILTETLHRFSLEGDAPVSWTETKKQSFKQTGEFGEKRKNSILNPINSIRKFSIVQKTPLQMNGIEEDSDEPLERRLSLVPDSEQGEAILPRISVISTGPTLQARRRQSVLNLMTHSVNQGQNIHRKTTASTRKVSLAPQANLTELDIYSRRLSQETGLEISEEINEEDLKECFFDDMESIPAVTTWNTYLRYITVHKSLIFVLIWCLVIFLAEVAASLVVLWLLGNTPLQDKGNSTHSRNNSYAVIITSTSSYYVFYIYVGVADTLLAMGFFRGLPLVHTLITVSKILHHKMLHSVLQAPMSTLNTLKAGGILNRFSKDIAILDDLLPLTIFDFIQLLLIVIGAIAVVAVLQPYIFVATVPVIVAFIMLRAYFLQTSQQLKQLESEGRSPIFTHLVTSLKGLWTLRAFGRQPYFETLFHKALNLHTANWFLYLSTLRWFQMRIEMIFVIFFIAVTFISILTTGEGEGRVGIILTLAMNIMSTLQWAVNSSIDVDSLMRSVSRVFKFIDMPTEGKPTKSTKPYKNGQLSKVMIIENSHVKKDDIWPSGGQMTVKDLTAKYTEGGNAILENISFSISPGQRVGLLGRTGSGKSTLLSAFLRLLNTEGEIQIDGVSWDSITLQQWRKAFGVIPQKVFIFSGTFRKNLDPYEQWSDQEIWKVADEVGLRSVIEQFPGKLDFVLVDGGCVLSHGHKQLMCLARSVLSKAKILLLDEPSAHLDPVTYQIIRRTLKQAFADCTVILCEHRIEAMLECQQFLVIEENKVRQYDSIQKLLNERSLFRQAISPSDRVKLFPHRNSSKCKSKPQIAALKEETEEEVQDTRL

As to `CC1CN(c2ncccc2C(=O)NS(=O)(=O)c2cccc(OC3CCC(C(C)C)CC3)n2)C(C)(C)C1` (stereo not shown) [Compound 2173, N—[[6-(4-isopropylcyclohexoxy)-2-pyridyl]sulfonyl]-2-(2,2,4-trimethylpyrrolidin-1-yl)pyridine-3-carboxamide], the 30% effect concentration (EC30) (in general, the concentration needed for an effect of 30%) under setting [1] was below 3000 nM.
With `Cc1cc(C#N)cc(C)c1Oc1nc(C(C)(C)C)ccc1C(=O)NS(=O)(=O)c1cccc(N)c1` [Compound 111, N-(3-aminophenyl)sulfonyl-6-tert-butyl-2-(4-cyano-2,6-dimethyl-phenoxy)pyridine-3-carboxamide], the EC30 result under setting [2] is listed as “+++ (“+++” means <3 uM)”.
`CC1CC=C(c2cnc(N3CC(C)CC3(C)C)c(C(=O)NS(=O)(=O)c3cccc(N)n3)c2)CC1` (stereo not shown) [Compound 2361, N-[(6-amino-2-pyridyl)sulfonyl]-5-(4-methylcyclohexen-1-yl)-2-(2,2,4-trimethylpyrrolidin-1-yl)pyridine-3-carboxamide]: the EC30 under setting [1] is below 3000 nM.
Still for that read-out and setting: the same measure for `COc1c(F)cc(-c2ccc(C(=O)NS(=O)(=O)c3cccnc3N)c(N3C[C@@H](C)CC3(C)C)n2)cc1F` [Compound 2457, N-[(2-amino-3-pyridyl)sulfonyl]-6-(3,5-difluoro-4-methoxy-phenyl)-2-[(4S)-2,2,4-trimethylpyrrolidin-1-yl]pyridine-3-carboxamide]: below 3000 nM; for `C[C@@H]1CN(c2nc(-c3ccccc3OC(F)(F)F)ccc2C(=O)NS(=O)(=O)c2cccnc2N)C(C)(C)C1` [Compound 2539, N-[(2-amino-3-pyridyl)sulfonyl]-6-[12-(trifluoromethoxy)phenyl]-2-[(4S)-2,2,4-trimethylpyrrolidin-1-yl]pyridine-3-carboxamide]: below 3000 nM.
On to `CC(Oc1nc(C(C)(C)C)ccc1C(=O)NS(=O)(=O)c1cccc(N)c1)c1ccccc1` (stereo not shown) [Compound 219, N-(3-aminophenyl)sulfonyl-6-tert-butyl-2-(1-phenylethoxy)pyridine-3-carboxamide], for which the EC30 result under setting [2] is given as “+++ (“+++” means <3 uM)”.
As to `CCOCCOCCOc1ccn(-c2ccc(C(=O)NS(=O)(=O)c3cccnc3N)c(N3C[C@@H](C)CC3(C)C)n2)n1` [Compound 2326, N-[(2-amino-3-pyridyl)sulfonyl]-6-[3-[2-(2-ethoxyethoxy)ethoxy]pyrazol-1-yl]-2-[(4S)-2,2,4-trimethylpyrrolidin-1-yl]pyridine-3-carboxamide], the EC30 under setting [1] was below 3000 nM.
As to `CC(C)COc1cc(F)cc(-c2ccc(C(=O)NS(=O)(=O)c3cccc(N)n3)c(N3CC4CCC3C4)n2)c1` (stereo not shown) [Compound 680, N-[(6-amino-2-pyridyl)sulfonyl]-2-(3-azabicyclo[2.2.1]heptan-3-yl)-6-(3-fluoro-5-isobutoxy-phenyl)pyridine-3-carboxamide], the EC30 result under setting [2] was “+++ (“+++” means <3 uM)”.
The same measure, in the same setting: for `Cc1ccc(-c2ccc(C(=O)NS(=O)(=O)c3cccc(N)n3)c(N3CC(C)CC3(C)C)n2)c(C)c1` (stereo not shown) [Compound 614, N-[(6-amino-2-pyridyl)sulfonyl]-6-(2,4-dimethylphenyl)-2-(2,2,4-trimethylpyrrolidin-1-yl)pyridine-3-carboxamide] the value was “+++ (“+++” means <3 uM)”; for `Cc1cc(C)c(CN2Cc3c(C(C)C)cccc3C2C(=O)NS(=O)(=O)c2ccc[nH]c2=O)c(C)c1` (stereo not shown) [Compound 103, 4-isopropyl-N-[(2-oxo-1H-pyridin-3-yl)sulfonyl]-2-[(2,4,6-trimethylphenyl)methyl]isoindoline-1-carboxamide], “+++ (“+++” means <3 uM)”.
On to `Cc1cc(C)c(Oc2nc(-c3cccc4nn(C)cc34)ccc2C(=O)NS(=O)(=O)c2cccc(N)n2)c(C)c1` [Compound 451, N-[(6-amino-2-pyridyl)sulfonyl]-6-(2-methylindazol-4-yl)-2-(2,4,6-trimethylphenoxy)pyridine-3-carboxamide], for which, under setting [2], the EC30 entry is “++ (“++” means between 3 uM and 10 uM)”.
In the case of `C[C@@H]1CN(c2nc(C3=CCCN(C(=O)CC4CCCCC4)C3)ccc2C(=O)NS(=O)(=O)c2cccc(N)n2)C(C)(C)C1` [Compound 2633, N-[(6-amino-2-pyridyl)sulfonyl]-6-[1-(2-cyclohexylacetyl)-3,6-dihydro-2H-pyridin-5-yl]-2-[(4S)-2,2,4-trimethylpyrrolidin-1-yl]pyridine-3-carboxamide], the EC30 under setting [1] fell in the range of 3000 to 10000 nM.
With `CC1CN(c2ncccc2C(=O)NS(=O)(=O)c2cccc(OCCC3CCCC3)n2)C(C)(C)C1` (stereo not shown) [Compound 2630, N—[[6-(2-cyclopentylethoxy)-2-pyridyl]sulfonyl]-2-(2,2,4-trimethylpyrrolidin-1-yl)pyridine-3-carboxamide], under setting [1], the EC30 is below 3000 nM.
Regarding `Cc1cc(C)c(Oc2nc(C)ccc2C(=O)NS(=O)(=O)c2ccn[nH]2)c(C)c1` [Compound 670, 6-methyl-N-(1H-pyrazol-5-ylsulfonyl)-2-(2,4,6-trimethylphenoxy)pyridine-3-carboxamide], the EC30 result under setting [2] was “++ (“++” means between 3 uM and 10 uM)”.
Still for that read-out and setting: for `Cc1cc(C)c(Oc2nc(-c3ccc(F)c(F)c3)ccc2C(=O)NS(=O)(=O)c2cccc(N)n2)c(C)c1` [Compound 725, N-[(6-amino-2-pyridyl)sulfonyl]-6-(3,4-difluorophenyl)-2-(2,4,6-trimethylphenoxy)pyridine-3-carboxamide] the value was “+++ (“+++” means <3 uM)”.
On to `C[C@@H]1CN(c2nc(-c3cccc(C(F)(F)F)c3)ccc2C(=O)NS(=O)(=O)c2ccc[nH]c2=O)C(C)(C)C1` [Compound 2144, N-[(2-oxo-1H-pyridin-3-yl)sulfonyl]-6-[3-(trifluoromethyl)phenyl]-2-[(4S)-2,2,4-trimethylpyrrolidin-1-yl]pyridine-3-carboxamide], for which, under setting [1], the EC30 is below 3000 nM.
On to `Cc1cc(C)c(Oc2nc(-c3ccc(OCC(C)C)cc3)ccc2C(=O)NS(=O)(=O)c2cccc(N)n2)c(C)c1` [Compound 320, N-[(6-amino-2-pyridyl)sulfonyl]-6-(4-isobutoxyphenyl)-2-(2,4,6-trimethylphenoxy)pyridine-3-carboxamide], for which the EC30 entry under setting [2] was “+++ (“+++” means <3 uM)”.
Turning to `CCOC(=O)c1ccc(Nc2cccc(S(=O)(=O)NC(=O)c3cccnc3N3CC(C)CC3(C)C)n2)cc1` (stereo not shown) [Compound 2122, ethyl 4-[[6-[[2-(2,2,4-trimethylpyrrolidin-1-yl)pyridine-3-carbonyl]sulfamoyl]-2-pyridyl]amino]benzoate], under setting [1], the EC30 was below 3000 nM.
Still for that read-out and setting: for `C[C@@H]1CN(c2ncccc2C(=O)NS(=O)(=O)N2CCCC(NCc3ccc(OC(C)(C)C)cc3)C2)C(C)(C)C1` (stereo partly shown) [Compound 2692] the value was 3000 to 10000 nM; for `CC1CN(c2ncccc2C(=O)NS(=O)(=O)c2cccc(OCc3cccc(C#N)c3)n2)C(C)(C)C1` (stereo not shown) [Compound 2299, N—[[6-[(3-cyanophenyl)methoxy]-2-pyridyl]sulfonyl]-2-(2,2,4-trimethylpyrrolidin-1-yl)pyridine-3-carboxamide], below 3000 nM; for `CC1CN(c2ncccc2C(=O)NS(=O)(=O)c2cccc(NCCN(C)C(=O)OC(C)(C)C)n2)C(C)(C)C1` (stereo not shown) [Compound 2400, tert-butyl N-methyl-N—[2-[[6-[[2-(2,2,4-trimethylpyrrolidin-1-yl)pyridine-3-carbonyl]sulfamoyl]-2-pyridyl]amino]ethyl]carbamate], 3000 to 10000 nM.
`Cc1cc(C)c(Oc2nc(-c3ccccc3)ccc2C(=O)NS(=O)(=O)c2cccc(NCCO)n2)c(C)c1` [Compound 595, N-[[6-(2-hydroxyethylamino)-2-pyridyl]sulfonyl]-6-phenyl-2-(2,4,6-trimethylphenoxy)pyridine-3-carboxamide]: the EC30 result under setting [2] was “+++ (“+++” means <3 uM)”.
